Measurements: patent US10993957B2 (NuCana plc, priority 2011, dated 2021)
Read-outs that look alike come from different tables or passages of the source.

Experiments:
L1210/0 = assay: Cytostatic assay, L1210/0 cells; type: cell-based, murine; details: Mus musculus; for IC50: read-out: IC50 L1210/0
From the text: The cell lines employed were L1210/0 (a leukemia cell line), FM3A/0 (a breast cancer cell line), Cem/0 (an acute lymphoblastic leukemia cell line) and HeLa (a cervical cell line).

human UP = human UP (Homo sapiens, UniProt Q16831); assay: Phosphorolysis by human UP, HPLC; details: 100 μM compound, room temperature, 0-40 min
Description: Reaction mixtures containing 100 μM test compound and recombinant TP or UP (human TP: 8.6 ng/μL; E. coli TP: 3.0 ng/μL; human UP: 4 ng/mL) in a total volume of 500 μL reaction buffer (10 mM TrisHCl; 300 μM NaCl; 1 mM EDTA; 2 mM KH2PO4/K2HPO4) were incubated at room temperature. At different time points (i.e. 0, 20, 40 min) 100 μL aliquots of the reaction mixtures were withdrawn and heated at 95° C. for 3 min to inactivate the enzyme. […] The separation of Urd from uracil was performed by a linear gradient from 100% separation buffer (see above) to 60% separation buffer+40% acetonitrile (3 min 100% separation buffer; 6 min linear gradient of 100% separation buffer to 60% separation buffer+40% acetonitrile; 6 min 60% separation buffer+40% acetonitrile, followed by equilibration at 100% separation buffer).

carboxypeptidase Y = molecular target: T1, carboxypeptidase Y (Saccharomyces cerevisiae, UniProt P00729); assay: Carboxypeptidase Y assay by in situ 31P NMR; type: in vitro ADME; details: yeast (Saccharomyces cerevisiae), 5 mg/mL, pH 7.6
T1 construct: purchased Sigma-Aldrich
T1 sequence (P00729 112-532): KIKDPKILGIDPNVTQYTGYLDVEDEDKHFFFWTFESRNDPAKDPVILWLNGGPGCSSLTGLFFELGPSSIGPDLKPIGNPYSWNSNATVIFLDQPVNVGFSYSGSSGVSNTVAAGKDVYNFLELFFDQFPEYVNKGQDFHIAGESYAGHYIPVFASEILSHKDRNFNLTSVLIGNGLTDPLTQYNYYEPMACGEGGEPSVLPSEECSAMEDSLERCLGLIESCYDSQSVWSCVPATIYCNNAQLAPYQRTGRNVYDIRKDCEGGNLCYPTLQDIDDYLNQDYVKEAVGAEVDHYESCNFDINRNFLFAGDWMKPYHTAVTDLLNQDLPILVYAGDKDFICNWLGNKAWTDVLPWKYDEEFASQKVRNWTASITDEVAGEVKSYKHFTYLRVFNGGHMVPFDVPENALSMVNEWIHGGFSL
Description: The enzymatic stability of the prodrug CPF-373 towards carboxypeptidase Y was studied using in situ ^31P NMR (202 MHz). The experiment was carried out by dissolving CPF-373 (3.0 mg) in d6-acetone (150 μL) and adding TRIZMA buffer pH 7.6 (300 μL). The resulting solution was placed in an NMR tube and a ^31P-NMR experiment at 25° C. was recorded as the blank experiment. The enzyme Carboxypeptidase Y (0.2 mg) was solubilised in TRIZMA (150 μL) and added to the solution of the phosphoramidate derivative in the NMR tube. Next, the tube was placed in the NMR machine, which was set to run a ^31P-NMR experiment (64 scans) every 4 minutes for 14 hours at 25° C. Data were processed and analysed with the Bruker Topspin 2.1 program. Carboxypeptidase Y and TRIZMA buffer were purchased from Sigma-Aldrich.
The compound (1) was incubated with carboxypeptidase Y (also known as cathepsin A) in TRIZMA buffer and the conversion of (1) was monitored by ^31P NMR. For a better resolution original spectra (lower graphs) and deconvoluted ones (upper graphs) are shown.
A enzymatic study using a carboxypeptidase Y assay was performed in which compound CPF 581, carboxypeptidase Y, and Trizma buffer (pH 7.6) were dissolved in acetone-d6 and ^31P NMR spectrum (202 MHz) spectra were recorded at regular intervals (every 7 min) over 14 h. […]

[1] = Stability in buffer at pH 1 by 31P NMR; type: physicochemical; details: 14 hours
Description: The stability of the prodrug CPF-373 towards hydrolysis at pH=1 was studied using in situ ^31P NMR (202 MHz). The ProTide CPF-373 (1) (2.6 mg) was dissolved in MeOD (0.1 mL) after which 0.5 mL buffer (pH=1) (prepared from equal parts of 0.2 M HCl and 0.2 M KCl) was added. Then the sample was transferred into an NMR tube, and a ^31P NMR experiment was performed at 37° C. recording the data every 12 minutes for 14 hours. Data were processed and analysed with the Bruker Topspin 2.1 program.
A chemical hydrolysis was evaluated under experimental conditions at pH 1 and pH 8 and monitored by ^31P NMR. During the assay (14 h) under acidic conditions (pH 1) only two peaks representing the two diastereoisomers were recorded.

Chain of human UP (Q16831 whole entry): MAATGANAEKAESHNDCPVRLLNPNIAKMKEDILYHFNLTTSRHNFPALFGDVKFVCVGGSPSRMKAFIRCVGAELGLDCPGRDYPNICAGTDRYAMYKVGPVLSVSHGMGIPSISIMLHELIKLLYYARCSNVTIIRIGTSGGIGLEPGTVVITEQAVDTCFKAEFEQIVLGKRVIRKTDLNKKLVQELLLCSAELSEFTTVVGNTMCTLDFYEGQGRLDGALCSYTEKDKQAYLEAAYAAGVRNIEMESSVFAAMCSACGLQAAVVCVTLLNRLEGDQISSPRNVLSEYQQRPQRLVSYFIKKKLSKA

With C[C@H](NP(=O)(OC[C@H]1O[C@@H](n2cc(F)c(=O)[nH]c2=O)CC1O)Oc1cccc2ccccc12)C(=O)OCc1ccccc1 (stereo partly drawn) [CPF 373, 5-Fluoro-2′deoxyuridine-5′-O-[1-naphthyl (benzoxy-L-alaninyl)] phosphate] as the compound, how does the CC50 (L1210/0; L1210/0, Table 2, mycoplasma negative cells, read-out: CC50 L1210) read?
The CC50 was 11 nM.

What about the IC50 (L1210/0; L1210/0, Table 3) of the same compound?
Its IC50 is 11 nM.

What about the IC50 (L1210/0; L1210/0, Table 6) of the same compound?
The IC50 was 11 ± 7 nM.

And the IC50 (L1210/0; L1210/0, Table 7)?
Its IC50 is 11 ± 9 nM.

And the “Phosphorolysis by human UP” value (human UP)?
Its value is “not affected”.

What about the “time to complete conversion of parent to the putative intermediate” value (carboxypeptidase Y) of the same compound?
The value was ≤ 26 min.

And the “Stability towards hydrolysis at pH 1” value [1]?
Its value is “full stability”.
